Assay results: ChEMBL document CHEMBL1201862, “PubChem BioAssay data set” (2004)
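The compound was tested at five concentrations on cells cultured in 96-well plates, with a 48-hour exposure period. The concentration for 50% growth inhibition is given as GI50.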 Active and inactive are the calls of the source. Cut-off read from the data, not from the text of the source: active = GI50 up to about 1.1 µM and inactive = higher.

Legend:
Assay in all cases: inhibition of tumour cell growth, NCI panel, 48 h
[1] = tested on: 786-0
[2] = tested on: COLO 205
[3] = tested on: EKVX
[4] = tested on: HCT-15
[5] = tested on: HOP-62
[6] = tested on: IGROV-1
[7] = tested on: LOX IMVI
[8] = tested on: NCI-H226
[9] = tested on: NCI-H460
[10] = tested on: OVCAR-3
[11] = tested on: OVCAR-5
[12] = tested on: OVCAR-8
[13] = tested on: RPMI-8226
[14] = tested on: RXF 393
[15] = tested on: SK-MEL-28
[16] = tested on: SR
[17] = tested on: TK-10
[18] = tested on: UACC-257

Row | Compound | GI50 [1] | GI50 [2] | GI50 [3] | GI50 [4] [µM] | GI50 [5] | GI50 [6] | GI50 [7] | GI50 [8] | GI50 [9] | GI50 [10] | GI50 [11] | GI50 [12] | GI50 [13] | GI50 [14] | GI50 [15] | GI50 [16] | GI50 [17] | GI50 [18]
1 | NC1CC(n2ccc(=O)[nH]c2=O)OC1C(O)CO (stereo not drawn) | > 100 µM (inactive) | > 100 µM (inactive) | > 100 µM (inactive) | > 100 | > 100 µM (inactive) | > 100 µM (inactive) | > 100 µM (inactive) | > 100 µM (inactive) | > 100 µM (inactive) | > 100 µM (inactive) | > 100 µM (inactive) | > 100 µM (inactive) | > 100 µM (inactive) | > 100 µM (inactive) | > 100 µM (inactive) | > 100 µM (inactive) | > 100 µM (inactive) | > 100 µM (inactive)
2 | NCC(=O)OCN1C(=O)C2C3C=CC(C2C1=O)C1C2C(=O)N(COC(=O)CN)C(=O)C2C31 (stereo not drawn) | 22.8 µM (inactive) | 21.4 µM (inactive) |  | 19.1 | > 100 µM (inactive) | 41.8 µM (inactive) | 20 µM (inactive) | 50.5 µM (inactive) | 16.6 µM (inactive) | 35.7 µM (inactive) |  | 20.7 µM (inactive) | 32.1 µM (inactive) | 20.6 µM (inactive) | 19.1 µM (inactive) |  | 31.3 µM (inactive) | 36.3 µM (inactive)
3 | CCCCc1c2c(nc3c1CCc1cc4c(nc1-3)-c1nc3c(c(CCCC)c1CC4)CCC/C3=C\c1ccccc1)/C(=C/c1ccccc1)CCC2 | 25.2 µM (inactive) | > 100 µM (inactive) | > 100 µM (inactive) | > 100 | 36.9 µM (inactive) | 81.5 µM (inactive) | > 100 µM (inactive) | > 100 µM (inactive) | 28.2 µM (inactive) | 40.6 µM (inactive) | > 100 µM (inactive) | > 100 µM (inactive) | > 100 µM (inactive) | 23.3 µM (inactive) | > 100 µM (inactive) | > 100 µM (inactive) | 51.2 µM (inactive) | > 100 µM (inactive)
4 | CC(=O)OC1=C2CC[C@@H]3C(CC[C@@]4(C)C3CC[C@@H]4OC(C)=O)[C@@]2(C)CC(C#N)C1=O (stereo partly drawn) | 10.8 µM (inactive) | 20.8 µM (inactive) | 33 µM (inactive) | 28.9 | 8.67 µM (inactive) | 19.2 µM (inactive) | 16.8 µM (inactive) | 34.7 µM (inactive) | 24.4 µM (inactive) | 21.2 µM (inactive) | 26.4 µM (inactive) | 30.9 µM (inactive) | 12 µM (inactive) | 23.4 µM (inactive) | 30.3 µM (inactive) |  | 23.6 µM (inactive) | 29.3 µM (inactive)
5 | COc1cc2c(cc1OC)C(CC1=C(c3ccccc3)CN3CCc4cc(OC)c(OC)cc4C3C1)NCC2 (stereo not drawn) | 15.7 µM (inactive) | 15.2 µM (inactive) | 21.8 µM (inactive) | 17.7 |  | 16.6 µM (inactive) | 15.8 µM (inactive) | 18.9 µM (inactive) | 18.8 µM (inactive) | 17.3 µM (inactive) | 18.5 µM (inactive) | 19.3 µM (inactive) | 9.84 µM (inactive) | 2.66 µM (inactive) | 14.5 µM (inactive) |  | 16.6 µM (inactive) | 16.2 µM (inactive)
6 | COC(=O)C(Cc1nc2ccccc2nc1O)C(=O)C(=O)Nc1ccc(OC)cc1[N+](=O)[O-] (stereo not drawn) | > 100 µM (inactive) | > 100 µM (inactive) | > 100 µM (inactive) | > 100 | > 100 µM (inactive) | > 100 µM (inactive) | > 100 µM (inactive) | > 100 µM (inactive) | > 100 µM (inactive) | > 100 µM (inactive) | > 100 µM (inactive) | > 100 µM (inactive) | > 100 µM (inactive) |  | > 100 µM (inactive) | > 100 µM (inactive) | > 100 µM (inactive) | > 100 µM (inactive)
7 | COCN(C)c1nc(N(C)C)nc(N(C)C)n1 | > 100 µM (inactive) | > 100 µM (inactive) | > 100 µM (inactive) | > 100 | > 100 µM (inactive) | > 100 µM (inactive) | > 100 µM (inactive) |  | > 100 µM (inactive) | > 100 µM (inactive) | > 100 µM (inactive) | > 100 µM (inactive) | > 100 µM (inactive) | 40.3 µM (inactive) | > 100 µM (inactive) | > 100 µM (inactive) | > 100 µM (inactive) | > 100 µM (inactive)
8 | OCC1CC2C=CCC(C2)C1 (stereo not drawn) | > 100 µM (inactive) | > 100 µM (inactive) | > 100 µM (inactive) |  | > 100 µM (inactive) | > 100 µM (inactive) | > 100 µM (inactive) | > 100 µM (inactive) | > 100 µM (inactive) | > 100 µM (inactive) | > 100 µM (inactive) | > 100 µM (inactive) | > 100 µM (inactive) | > 100 µM (inactive) | > 100 µM (inactive) | > 100 µM (inactive) | > 100 µM (inactive) | > 100 µM (inactive)
9 | CC(C)OP(=O)(OC(C)C)/C(=N/Nc1ccc([N+](=O)[O-])cc1)NCCN/C(=N\Nc1ccc([N+](=O)[O-])cc1)P(=O)(OC(C)C)OC(C)C | 9.86 µM (inactive) | 3.93 µM (inactive) | 4.54 µM (inactive) | 4.61 | 6.01 µM (inactive) | 2.31 µM (inactive) | 8.89 µM (inactive) | 3.94 µM (inactive) | 3.71 µM (inactive) | 3.62 µM (inactive) | 31.6 µM (inactive) | 4.55 µM (inactive) | 3.51 µM (inactive) |  | 31.3 µM (inactive) | 4.03 µM (inactive) | 6.03 µM (inactive) | 6.61 µM (inactive)
10 | O=C1c2cnccc2Cc2cccc3c2N1c1ccccc1S3 | 28.1 µM (inactive) | 27.4 µM (inactive) |  | 23.3 | 20.9 µM (inactive) | 28 µM (inactive) | 22.7 µM (inactive) |  |  | 17.7 µM (inactive) |  |  | 20.6 µM (inactive) | 21.6 µM (inactive) | 26.1 µM (inactive) | 12.4 µM (inactive) |  | 23.3 µM (inactive)
11 | N#CC1(c2nc3ccccc3o2)C(=O)C(=O)N(c2ccc(Cl)c(Cl)c2)C(=O)C1=O | > 100 µM (inactive) | > 100 µM (inactive) | > 100 µM (inactive) | 74.6 | > 100 µM (inactive) |  | > 100 µM (inactive) | > 100 µM (inactive) | > 100 µM (inactive) | > 100 µM (inactive) | > 100 µM (inactive) | > 100 µM (inactive) | > 100 µM (inactive) | > 100 µM (inactive) | > 100 µM (inactive) |  | > 100 µM (inactive) | > 100 µM (inactive)
12 | COC(=O)C(=O)C1CCCCC(C2=NC3NN=C(N)N3C2=O)C1=O (stereo not drawn) | > 100 µM (inactive) | > 100 µM (inactive) | > 100 µM (inactive) | > 100 | > 100 µM (inactive) | > 100 µM (inactive) | > 100 µM (inactive) | > 100 µM (inactive) | > 100 µM (inactive) | > 100 µM (inactive) | > 100 µM (inactive) | > 100 µM (inactive) |  | 63 µM (inactive) | > 100 µM (inactive) | > 100 µM (inactive) | > 100 µM (inactive) | > 100 µM (inactive)
13 | CCOC(=O)C1(Br)C(c2ccccc2)NC(=O)N(C2OC(COC(=O)c3ccccc3)C(OC(=O)c3ccccc3)C2OC(=O)c2ccccc2)C1(C)Br (stereo not drawn) | 12.9 µM (inactive) | 24.4 µM (inactive) | 36.7 µM (inactive) | 15.8 | 38.9 µM (inactive) | 34.9 µM (inactive) | 21.8 µM (inactive) |  | 31 µM (inactive) | 29.6 µM (inactive) |  | 17.3 µM (inactive) | 9.31 µM (inactive) | 14.5 µM (inactive) | > 47 µM (inactive) |  | 39.4 µM (inactive) | 18.6 µM (inactive)
14 | COc1nc(NC2OCC(O)C(O)C2O)c(NC2OCC(O)C(O)C2O)c(=O)n1C (stereo not drawn) | > 100 µM (inactive) | > 100 µM (inactive) | > 100 µM (inactive) | > 100 | > 100 µM (inactive) | > 100 µM (inactive) | > 100 µM (inactive) | 89.7 µM (inactive) | > 100 µM (inactive) | > 100 µM (inactive) |  | > 100 µM (inactive) | > 100 µM (inactive) | > 100 µM (inactive) | > 100 µM (inactive) | > 100 µM (inactive) | > 100 µM (inactive) | > 100 µM (inactive)
15 | NC(CCC(=O)Nc1ccc(O)cc1)C(=O)O (stereo not drawn) | > 100 µM (inactive) | > 100 µM (inactive) | > 100 µM (inactive) | > 100 | > 100 µM (inactive) |  | > 100 µM (inactive) | > 100 µM (inactive) | > 100 µM (inactive) | > 100 µM (inactive) | > 100 µM (inactive) | > 100 µM (inactive) | > 100 µM (inactive) | > 100 µM (inactive) | > 100 µM (inactive) | > 100 µM (inactive) | > 100 µM (inactive) | > 100 µM (inactive)
16 | Cc1cccc(C)c1N1C(=O)C(=O)C(c2nc3ccccc3s2)/C(=N/c2cccc3c(=O)[nH][nH]c(=O)c23)C1=O (stereo not drawn) | > 100 µM (inactive) | 41.5 µM (inactive) | > 100 µM (inactive) | > 100 | > 100 µM (inactive) | > 100 µM (inactive) | > 100 µM (inactive) | > 100 µM (inactive) | > 100 µM (inactive) | > 100 µM (inactive) | > 100 µM (inactive) | > 100 µM (inactive) | > 100 µM (inactive) |  | > 100 µM (inactive) | 99.5 µM (inactive) | > 100 µM (inactive) | > 100 µM (inactive)
